# Experimental data from patent US11492321B2, “Method for producing capped 3-hydroxycarboxylic acids and their salts and esters” (IOI Oleo GmbH, priority 2019, dated 2022).
# Experiments:
# [1] = Cleavage experiments in FaSSGF medium simulating the stomach; assay type: in vitro ADME; conditions: in the presence or absence of pancreatin
# Source text: (§1) By means of cleavage experiments it is shown that reaction products prepared according to the invention or mixtures thereof can be cleaved in the human gastrointestinal tract. The starting mixture used is, on the one hand, a 3-acetoxybutyric acid ethyl ester obtained and purified by the process according to the invention as described hereinabove and, on the other hand, in each case the 3-BHB ethyl esters capped in the 3-position with the carboxylic acid anhydride (heptanoic acid anhydride, lauric acid anhydride or oleic acid anhydride) obtained and purified by the process according to the invention as described hereinabove.
# (§2) For the cleavage experiments under near-body conditions two media are investigated: • FaSSGF, which simulates the stomach • FaSSIF, which simulates the intestinal tract
# (§3) Both media are from the company Biorelevant®, Ltd. in Great Britain. In addition, in some experiments porcine pancreas is added (Panzytrat® 40,000, Fa. Allergan).
# (§4) Under FaSSIF conditions, a lower conversion using Panzytrat® takes place.
# [2] = Cleavage experiments in FaSSIF medium simulating the intestinal tract; assay type: in vitro ADME; conditions: in the presence or absence of pancreatin
# Source text: as §1, §2, §3, §4
# [3] = even if several grams are taken; patients; cited from earlier work
Structure (SMILES),cleavage in gastric medium [1],cleavage in intestinal medium [2],duration of ketosis [3]
CCOC(=O)CC(C)OC(C)=O (stereo not drawn) [3-acetoxybutyric acid ethyl ester],cleavage to 3-BHB in free form,cleavage to 3-BHB in free form,–
CC(O)CC(=O)O (stereo not drawn) [3-hydroxybutyric acid],–,–,three to four
